Experimental findings from patent publication US8894989B2, “PARP inhibitor compounds, compositions and methods of use” (Eisai Inc., priority 2007, dated 2014) are described below.

Entries after “also recorded” stand apart in the source; their conditions may differ. Read-outs that look alike come from different tables or passages of the source.

Data set [1] in a line: Bioavailability and brain/plasma levels in mice. Particulars: 30 mg/kg; for Kp / bioavailability: mouse; for Kp: brain; for bioavailability: plasma, po.
The nature of data set [2]: Bioavailability and brain/plasma levels in rats. To be noted: 30 mg/kg; for Kp / bioavailability: rat; for Kp: brain; for bioavailability: plasma, po.
Data set [3] concerns B16 melanoma. Briefly: Mouse intracranial model of B16 melanoma, combination with TMZ. Type of data set: in vivo, mice. To be noted: for survival time: compound 13 10 mg/kg oral + TMZ vs TMZ as single agent (P<0.0001).
The test system of data set [4] is SJGBM2 glioma. Particulars: for efficacy (survival): compound 13 10 mg/kg po + TMZ.
Data set [5] concerns Human HNSCC cell line JHU012. Briefly: Enhancement of radiation treatment of head and neck squamous cell carcinoma xenograft. The data set is classed as in vivo, BALB/c nude mice. The protocol:
Human HNSCC cell line JHU012 was used, having been previously genetically characterized and originally derived at the Johns Hopkins University Head and Neck Laboratories from human tumor explants. The cell line was maintained in RPMI 1640 medium with 10% fetal bovine serum and 1% penicillin/streptomycin at 5% CO2 in 37° C. humidified incubators. Experiments were performed on 6-week-old male BALB/c nude mice nu/nu. […] Mice were anesthetized by intraperitoneal injection of […] tribromoethanol. Tumors were established at the right flank by subcutaneous injection of 1×10^7 cells. Fourteen days post cell injection tumors were surgically exposed and measured in 3 dimensions using calipers.

The subject of data set [6] is BRCA-1 null cells. Briefly: Tumor growth in mice bearing BRCA-1 deficient tumors. The data set is classed as in vivo, nu/nu mice. As for the experimental part: 1×10^6 BRCA-1 null cells were injected subcutaneously on the right flank of female nu/nu mice (6-7 weeks old; Harlan Sprague Dawley, Indianapolis Ind.). After approximately 10-14 days, the tumors were approximately 100 mm^3. Mice were sorted into groups so that mean tumor size was similar among groups with minimum standard deviations. Dosing started the day after sorting and tumor volume was monitored three times per week. Tumors were measured in two diameters and volume calculated by […]. Mice were removed from the study when tumors reached 1500 mm^3. “Time to Endpoint” or TTE (the number of days it takes for the tumor to reach 1500 mm^3 or greater) is the endpoint of the study. […] The compound was dosed orally, daily for 28 days from start of the study—day 1. A positive control was utilized, using a well known PARP inhibitor shown to be effective as a stand alone agent in the BRCA models (Bryant et al). The positive control agent was dosed at 25 mg/kg IP qdx5 from start of experiment.

Data set [7] is described as follows: in vivo. To be noted: rat, po, 30 mg/kg.
The nature of data set [8]: in vivo. To be noted: mouse, po, 30 mg/kg.
The nature of data set [9]: Plasma and tissue pharmacokinetic properties in mice, rats, and dogs (general statements). To be noted: in words. Type of data set: in vivo. As for the experimental part: AUC was calculated using the Linear/Log rule.
Selective PARP inhibitors were tested for basic plasma and tissue pharmacokinetic properties in mice, rats, and dogs. After assessment, this family compounds appear to be orally bioavailable in all species and to penetrate brain and tumor tissue.

In the case of `O=c1[nH]nc2c3c(cccc13)N=C(CN1CCN(c3ccccc3)CC1)N2`, the Kp in data set [1] worked out at 0.49; in data set [2], 0.4. The bioavailability in data set [1] was 49%; in data set [2], 58%.

Take `O=c1[nH]nc2c3c(cccc13)N=C(CN1CCC(c3ccccc3)CC1)N2`: the “B/P in mice (ratio of brain to plasma levels)” value in [1] (mice) is 30-64%. Further, the bioavailability in data set [1] was 75%; in data set [2], 50%. Also, the “B/P in rats (ratio of brain to plasma levels)” value in data set [2] (rats) was 71-117%.

Take `O=c1[nH]nc2c3c(cccc13)N=C(CN1CC=C(c3ccccc3)CC1)N2` [Compound 13, 8-(4-phenyl-3,6-dihydro-2H-pyridin-1-ylmethyl)-2,9-dihydro-1,2,7,9-tetraaza-phenalen-3-one]: the survival time entry in [3] is reported as “enhance survival”; in [3] (listed as compound 13) it was “significantly increased the survival time”. Besides, the “MTS (median survival time)” value in data set [4] (compound 13 10 mg/kg po 15 min pre-TMZ, combination with TMZ (P=0.002)) worked out at 25 days. The “efficacy (survival)” value in data set [4] was “enhanced survival”; in data set [4] (listed as compound 13), “efficacious”.

Consider `O=c1[nH]nc2c3c(cccc13)N=C(CN1Cc3ccccc3C1)N2` [Compound 37, 8-(1,3-dihydro-isoindol-2-ylmethyl)-2,9-dihydro-1,2,7,9-tetraaza-phenalen-3-one], for which, in data set [3] (Compound 37 12.5 mg/kg oral + TMZ vs TMZ as single agent), the mean survival time entry is reported as “significantly higher; also recorded: enhance survival”. The animal survival entry in data set [4] (10 mg/kg Compound 37 + TMZ five days followed by Compound 37 100 mg/kg for 14 days vs 10 mg/kg Compound 37 + TMZ five days) is reported as “significantly increased animal survival”. Besides, the tumor growth inhibition result in [5] (100 mg/kg Compound 37 PO qdx17 alone compared to vehicle controls) and in data set [5] (Compound 37 30 mg/kg PO + radiation compared to radiation alone) was “no significant effect on tumor growth inhibition” each time. Besides, in data set [5] (Compound 37 oral (100 mg/kg) + radiation vs control), the “inhibition of tumor growth” value was “significant inhibition of tumor growth”. The “tumor volume at end of experiment” value in data set [5] (Group 5: 100 mg/kg Compound 37 PO + Radiation (2 gy/day for 2 days), day 31, control 585.9 mm^3, p<0.01) amounted to 209.04 mm^3. Besides, in data set [6] (100 mg/kg Compound 37 orally, daily for 28 days, vs vehicle controls), the tumor growth entry is reported as “effective in significantly retarding tumor growth; also recorded: inhibition of growth”. Besides, the “time until tumors start to grow after dosing stopped at day 28” value in [6] (Compound 37 100 mg/kg po daily for 28 days) is 10 to 14 days. Besides, in data set [6] (Compound 37 100 mg/kg po vs positive control PARP inhibitor 25 mg/kg IP qdx5 (p<0.05)), the “tumor growth delay compared to positive control” value is reported as “delayed tumor growth compared to the positive control”.

For the compound `Cn1nnc2c(C(N)=O)ncn2c1=O` [TMZ, temozolomide, reference compound], the survival times result in [3] (TMZ treated vs control group) is on record as “No significant differences in survival times”. The “MTS (median survival time)” value in data set [4] (TMZ alone) amounted to 22.5 days. Moreover, the “response of SJGBM2 to TMZ” value in data set [4] (TMZ as single agent) is reported as “ineffective”.

Regarding `O=c1[nH]nc2c3c(cccc13)N=C(CN1CCOCC1)N2` [drawing 95], in data set [1], the Kp is below 0.05 and the bioavailability amounted to 77%. In data set [2], the Kp was below 0.05 and the bioavailability amounted to 77%.

For `O=c1[nH]nc2c3c(cccc13)N=C(CN1CC=C(c3ccccc3)CC1)N2` [drawing 97], the bioavailability in data set [7] is 51%; in data set [8], 61%. Also, the Kp came out at 0.46 in data set [1] and 0.42 in [2].

In the case of `O=c1[nH]nc2c3c(cccc13)N=C(CN1Cc3ccccc3C1)N2` [drawing 99], the Kp in data set [1] was 0.26; in [2], 0.36. Further, the bioavailability in data set [1] is 81%; in data set [2], 45%.

Turning to `O=c1[nH]nc2c3c(cccc13)N=C(CN1CCOCC1)N2` [prior art compound], in [9], the oral bioavailability entry is recorded as “good bioavailability” and the “ratio of brain to plasma levels” value is given as “very low”.
